From PubChem BioAssay AID1845216 (Molecular Pharmacology Branch, DTP, NCI, 2023)

Tested on: SW 982 tumor spheroid viability
Assay: Anticancer human tumor SW 982 cell line growth inhibition;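 further: spheroids exposed to compound for 7 days before readout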
Conditions: spheroids with HUVEC and MSC; for IC50: curve of first compound; for viability, T/C: stronger effect = lower value
Summary of the method: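 Complex spheroids of malignant cells with endothelial cells and mesenchymal stem cells; agents alone or combined, from near clinical Cmax (or 10 microM if unknown) down in half-log steps, 0.25% DMSO final.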

[1] = second compound 1 µM, first compound 0.0316 µM
[2] = second compound 1 µM, first compound 0.1 µM
[3] = second compound 1 µM, first compound 0.316 µM
[4] = second compound 1 µM, first compound 1 µM
[5] = second compound 1 µM, first compound 3.16 µM
[6] = second compound 1 µM, first compound 10 µM
[7] = second compound 3.16 µM, first compound 0.0316 µM
[8] = second compound 3.16 µM, first compound 0.1 µM
[9] = second compound 3.16 µM, first compound 0.316 µM
[10] = second compound 3.16 µM, first compound 1 µM
[11] = second compound 3.16 µM, first compound 3.16 µM
[12] = second compound 3.16 µM, first compound 10 µM
[13] = second compound 10 µM, first compound 0.0316 µM
[14] = second compound 10 µM, first compound 0.1 µM
[15] = second compound 10 µM, first compound 0.316 µM
[16] = second compound 10 µM, first compound 1 µM
[17] = second compound 10 µM, first compound 3.16 µM
[18] = second compound 10 µM, first compound 10 µM
[19] = second compound 31.6 µM, first compound 0.0316 µM
[20] = second compound 31.6 µM, first compound 0.1 µM
[21] = second compound 31.6 µM, first compound 0.316 µM
[22] = second compound 31.6 µM, first compound 1 µM
[23] = second compound 31.6 µM, first compound 3.16 µM
[24] = second compound 31.6 µM, first compound 10 µM
[25] = second compound 100 µM, first compound 0.0316 µM
[26] = second compound 100 µM, first compound 0.1 µM
[27] = second compound 100 µM, first compound 0.316 µM
[28] = second compound 100 µM, first compound 1 µM
[29] = second compound 100 µM, first compound 3.16 µM
[30] = second compound 100 µM, first compound 10 µM

## Cc1cc(C)c(CNC(=O)c2cc(-c3ccc(CN4CCOCC4)cc3)cc3c2cnn3C2CCCC2)c(=O)[nH]1 + Cn1nnc2c(C(N)=O)ncn2c1=O
Second compound 1 µM
  IC50: > 10 µM
Second compound 3.16 µM
  IC50: > 10 µM
Second compound 10 µM
  IC50: > 10 µM
Second compound 31.6 µM
  IC50: > 10 µM
Second compound 100 µM
  IC50: > 10 µM
[1]
  viability, T/C: 102%
[2]
  viability, T/C: 104%
[3]
  viability, T/C: 103%
[4]
  viability, T/C: 103%
[5]
  viability, T/C: 92.1%
[6]
  viability, T/C: 91.2%
[7]
  viability, T/C: 88.4%
[8]
  viability, T/C: 99.2%
[9]
  viability, T/C: 101%
[10]
  viability, T/C: 96.6%
[11]
  viability, T/C: 92.3%
[12]
  viability, T/C: 70.6%
[13]
  viability, T/C: 86.7%
[14]
  viability, T/C: 82.6%
[15]
  viability, T/C: 81.3%
[16]
  viability, T/C: 82.8%
[17]
  viability, T/C: 82.2%
[18]
  viability, T/C: 53.4%
[19]
  viability, T/C: 73.8%
[20]
  viability, T/C: 69%
[21]
  viability, T/C: 74.9%
[22]
  viability, T/C: 73.5%
[23]
  viability, T/C: 74.4%
[24]
  viability, T/C: 58.7%
[25]
  viability, T/C: 58.9%
[26]
  viability, T/C: 63%
[27]
  viability, T/C: 57.7%
[28]
  viability, T/C: 63.5%
[29]
  viability, T/C: 55.3%
[30]
  viability, T/C: 53.8%

## Cc1sc2c(c1C)C(c1ccc(Cl)cc1)=NC(CC(=O)Nc1ccc(O)cc1)c1nnc(C)n1-2 (stereo not given) + Cn1nnc2c(C(N)=O)ncn2c1=O
Second compound 1 µM
  IC50: 0.294 µM
Second compound 3.16 µM
  IC50: 0.24 µM
Second compound 10 µM
  IC50: 0.158 µM
Second compound 31.6 µM
  IC50: 0.106 µM
Second compound 100 µM
  IC50: 0.0922 µM
Second compound 1 µM, first compound 0.00949 µM
  viability, T/C: 113%
Second compound 1 µM, first compound 0.03 µM
  viability, T/C: 101%
Second compound 1 µM, first compound 0.0949 µM
  viability, T/C: 78.2%
Second compound 1 µM, first compound 0.3 µM
  viability, T/C: 47.6%
Second compound 1 µM, first compound 0.949 µM
  viability, T/C: 35%
Second compound 1 µM, first compound 3 µM
  viability, T/C: 25%
Second compound 3.16 µM, first compound 0.00949 µM
  viability, T/C: 103%
Second compound 3.16 µM, first compound 0.03 µM
  viability, T/C: 104%
Second compound 3.16 µM, first compound 0.0949 µM
  viability, T/C: 76.6%
Second compound 3.16 µM, first compound 0.3 µM
  viability, T/C: 43.8%
Second compound 3.16 µM, first compound 0.949 µM
  viability, T/C: 27.7%
Second compound 3.16 µM, first compound 3 µM
  viability, T/C: 21.4%
Second compound 10 µM, first compound 0.00949 µM
  viability, T/C: 87.8%
Second compound 10 µM, first compound 0.03 µM
  viability, T/C: 81%
Second compound 10 µM, first compound 0.0949 µM
  viability, T/C: 60.8%
Second compound 10 µM, first compound 0.3 µM
  viability, T/C: 36.4%
Second compound 10 µM, first compound 0.949 µM
  viability, T/C: 21.6%
Second compound 10 µM, first compound 3 µM
  viability, T/C: 17.8%
Second compound 31.6 µM, first compound 0.00949 µM
  viability, T/C: 76.2%
Second compound 31.6 µM, first compound 0.03 µM
  viability, T/C: 67.6%
Second compound 31.6 µM, first compound 0.0949 µM
  viability, T/C: 53.9%
Second compound 31.6 µM, first compound 0.3 µM
  viability, T/C: 27.8%
Second compound 31.6 µM, first compound 0.949 µM
  viability, T/C: 19.7%
Second compound 31.6 µM, first compound 3 µM
  viability, T/C: 14.7%
Second compound 100 µM, first compound 0.00949 µM
  viability, T/C: 67.7%
Second compound 100 µM, first compound 0.03 µM
  viability, T/C: 66.4%
Second compound 100 µM, first compound 0.0949 µM
  viability, T/C: 49.6%
Second compound 100 µM, first compound 0.3 µM
  viability, T/C: 21.2%
Second compound 100 µM, first compound 0.949 µM
  viability, T/C: 16.1%
Second compound 100 µM, first compound 3 µM
  viability, T/C: 20.6%

## [2H]c1nc(C)nc([2H])c1-c1cc(NC[C@@H](C)c2cccc3c(C(=O)NC)ccnc23)ncn1 + Cn1nnc2c(C(N)=O)ncn2c1=O
Second compound 1 µM
  IC50: > 10 µM
Second compound 3.16 µM
  IC50: > 10 µM
Second compound 10 µM
  IC50: > 10 µM
Second compound 31.6 µM
  IC50: > 10 µM
Second compound 100 µM
  IC50: > 10 µM
[1]
  viability, T/C: 100%
[2]
  viability, T/C: 102%
[3]
  viability, T/C: 92.6%
[4]
  viability, T/C: 103%
[5]
  viability, T/C: 106%
[6]
  viability, T/C: 82.3%
[7]
  viability, T/C: 92.6%
[8]
  viability, T/C: 86.4%
[9]
  viability, T/C: 96%
[10]
  viability, T/C: 86.8%
[11]
  viability, T/C: 63.9%
[12]
  viability, T/C: 55.1%
[13]
  viability, T/C: 83.8%
[14]
  viability, T/C: 76%
[15]
  viability, T/C: 78.5%
[16]
  viability, T/C: 80.7%
[17]
  viability, T/C: 71.7%
[18]
  viability, T/C: 59.8%
[19]
  viability, T/C: 69.5%
[20]
  viability, T/C: 76.2%
[21]
  viability, T/C: 76.8%
[22]
  viability, T/C: 72.5%
[23]
  viability, T/C: 76.5%
[24]
  viability, T/C: 71.2%
[25]
  viability, T/C: 63.5%
[26]
  viability, T/C: 63.4%
[27]
  viability, T/C: 58%
[28]
  viability, T/C: 60.9%
[29]
  viability, T/C: 56.9%
[30]
  viability, T/C: 60.7%
